Row | melting point | Structure (SMILES)
1 | 114 to 116 °C | O=c1c(C(O)(O)C(F)(F)F)coc2ccc(Cl)cc12
2 | 149 to 151 °C | CC(C)(c1ccccc1)c1nnc(N)s1
3 | 123 to 125 °C | Nc1cnc(Cc2ccc(F)cc2)nc1
4 | 182 to 184 °C | NC(=O)c1cc(Br)c(N)c(Br)c1
5 | 74 to 76 °C | CC(C)(C)OC(=O)c1ccc(C#N)cc1
6 | 218 to 220 °C | Cc1ccc2[nH]c(C(=O)O)cc2c1
7 | 109 to 111 °C | CC(C)(C)OC(=O)N1CCC(O)(Cc2cccc(Cl)c2)C1 (stereo not drawn)
8 | 214 to 216 °C | COc1ccc(-c2nnc(N)[nH]2)c(OC)c1
9 | 127 to 129 °C | COC(=O)c1cc(N)c(OC)c(OC)c1
10 | 231 to 233 °C | CN1CCN(S(=O)(=O)c2ccc(N)cc2)CC1
11 | 52 to 54 °C | O=C(O)C1CC1C1CCCCC1 (stereo not drawn)
12 | 120 to 122 °C | Cc1ccccc1OCC(=O)NN
13 | 73 to 75 °C | O=Cc1ccccc1OCc1ccccn1
14 | 186 to 188 °C | O=C(O)c1cn(CCOc2ccccc2Cl)c2ccccc12
15 | 128 to 130 °C | CC(C)(C)OC(=O)NC(C(=O)O)c1cccc(Cl)c1 (stereo not drawn)
16 | 152 to 154 °C | Cc1ccc(C(N)=O)n1C
17 | 165 to 167 °C | COc1nc(N)n[nH]1
18 | 193 to 195 °C | Nc1ccc(CC(=O)N2CCN(c3ncccn3)CC2)cc1
19 | 104 to 108 °C | O=C(O)CCNC(=O)OCc1ccccc1
20 | 124 to 126 °C | CC(=O)c1cnn(-c2ccccc2)c1
21 | 155 to 157 °C | Cc1ccc(-c2ccc(O)cc2)cc1
22 | 203 to 205 °C | O=C1NC(=O)C2(CCCc3ccccc32)N1 (stereo not drawn)
23 | 71 to 73 °C | O=C(O)CCc1cc(F)ccc1F
24 | 47 to 49 °C | CNCC1CCN(CC(O)c2ccccc2)CC1 (stereo not drawn)
25 | 86 to 88 °C | Nc1ccnn1Cc1cccnc1

Row | melting point | Structure (SMILES)
26 | 175 to 177 °C | CCOC(=O)c1cnn(-c2ccc(C(=O)O)cc2)c1C(F)(F)F
27 | 229 to 231 °C | O=C(O)c1ccc(CN2C(=O)CCC2=O)cc1
28 | 228 to 229 °C | Cn1c(=O)c2ccccc2n2c(CCl)nnc12
29 | 189 to 191 °C | CSc1ccc(-c2nc(=N)s[nH]2)cc1
30 | 102 to 104 °C | O=C(O)C1CC(=O)N(c2cccc(C(F)(F)F)c2)C1 (stereo not drawn)
31 | 53 to 55 °C | CC1NCCn2c(Cl)ccc21 (stereo not drawn)
32 | 35 to 37 °C | CCCOc1cc(C=O)ccc1OC
33 | 136 to 138 °C | CNS(=O)(=O)c1ccc(Cl)c(C(=O)O)c1Cl
34 | 257 to 259 °C | O=[N+]([O-])c1ccc2[nH]c(-c3cscn3)nc2c1
35 | 86 to 88 °C | CNS(=O)(=O)c1ccc2c(c1)NCC2
36 | 70 to 72 °C | CCOC(=O)CNCC(N)=O
37 | 95 to 97 °C | CCNC(=O)COc1ccc(N)cc1
38 | 40 to 42 °C | CC(C)OCc1ccccc1CNC(=O)CCl
39 | 84 to 86 °C | O=C(O)Cc1ccon1
40 | 160 to 162 °C | COC(=O)/C=C/c1cc(OC)c(OC)c(S(=O)(=O)Cl)c1
41 | 103 to 105 °C | C=Cn1ccnc1CO
42 | 83 to 85 °C | N#CCCNc1ccc2c(c1)OCCO2
43 | 59 to 61 °C | O=C(O)C(Oc1ccc(Cl)c(Cl)c1)c1ccccc1 (stereo not drawn)
44 | 118 to 120 °C | CS(=O)(=O)c1ccccc1NC(=O)CCl
45 | 30 to 32 °C | O=C(NCCCCl)OCc1ccccc1
46 | 73 to 75 °C | CC1CC1c1ccc(/C=C/C(=O)O)o1 (stereo not drawn)
47 | 86 to 88 °C | CC(C)CNc1nc(-c2ccccc2[N+](=O)[O-])cs1
48 | 257 to 259 °C | O=C1CCc2cc(C(=O)CCl)c(F)cc2N1
49 | 250 to 252 °C | CSc1ncc(C(N)=O)c(N)n1
50 | 247 to 249 °C | Nc1nc2cc(Cl)cc(Cl)c2o1

Row | melting point | Structure (SMILES)
51 | 249 to 251 °C | Cc1onc(-c2ccncc2)c1C(=O)O
52 | 104 to 106 °C | O=C(O)c1cccc(CS)c1
53 | 175 to 177 °C | O=C(O)c1ccccc1CSc1nc2ccccc2o1
54 | 139 to 141 °C | O=C(O)c1nnc2c(C(F)(F)F)cccn12
55 | 163 to 165 °C | Cn1c(N)nc2c(F)cccc21
56 | 185 to 187 °C | Cn1c(N)c(C(=O)CCl)c(=O)n(C)c1=O
57 | 189 to 191 °C | NC(=O)Cc1cc(Br)c(-c2ccc(N)cc2)s1
58 | 168 to 170 °C | COc1cc(NC(=O)NN)c(OC)cc1Cl
59 | 104 to 106 °C | CC(C)(C)OC(=O)Nc1csc(Br)n1
60 | 213 to 215 °C | O=C(O)c1cc(Cl)nc(Oc2ccc(Br)cc2)c1
61 | 154 to 156 °C | CS(=O)(=O)Nc1cccc(C#N)c1
62 | 97 to 99 °C | O=C(O)Cc1ccn(-c2ccc(F)cc2)n1
63 | 163 to 165 °C | CN(C)C(=O)Cn1cc(Br)cn1
64 | 347 to 349 °C | Cc1nn(-c2ccc(F)cc2)c2ncc(C(=O)O)cc12
65 | 118 to 120 °C | O=Cc1c(O)ccc([N+](=O)[O-])c1Cl
66 | 69 to 71 °C | Clc1ccnc(-c2ccccc2)n1
67 | 51 to 53 °C | NCc1ccc(OCc2ccccc2)cc1
68 | 133 to 135 °C | O=C(O)c1cn(-c2ccccc2Cl)nn1
69 | 152 to 154 °C | CC1CN(C(=O)c2cnn(C)c2N)CC(C)O1 (stereo not drawn)
70 | 150 to 155 °C | O=C(O)COc1ccc(N2CCCC2=O)cc1
71 | 92 to 94 °C | N#CCC(=O)NC1CCCC1
72 | 66 to 68 °C | COC(=O)Cn1ncc2c(Cl)ncnc21
73 | 35 to 37 °C | CNC(=O)OCC(F)(F)F
74 | 63 to 65 °C | Cc1ccccc1C(=O)C=O
75 | 238 to 240 °C | O=C(O)c1cn(-c2ccccc2)nc1-c1cccnc1

Row | melting point | Structure (SMILES)
76 | 45 to 47 °C | CCOC(=O)CS(=O)(=O)c1ccc(Br)cc1
77 | 44 to 46 °C | CNCCOc1ccc(OCc2ccccc2)cc1
78 | 187 to 189 °C | Cc1nn(-c2cccc(F)c2)c(C(F)F)c1C(=O)O
79 | 37 to 39 °C | Cc1nnc(-c2ccccc2F)o1
80 | 84 to 86 °C | COc1ccc(C(C)(C)C(=O)O)cc1OC
81 | 114 to 116 °C | Cc1ccc(N)cc1C(=O)N(C)C
82 | 144 to 146 °C | Oc1cc(Cl)cnc1Br
83 | 67 to 69 °C | NCC(O)Cc1ccccc1 (stereo not drawn)
84 | 173 to 175 °C | Cc1cc(C)nc(-n2nc(C)cc2N)n1
85 | 54 to 56 °C | COC(=O)c1nscc1N
86 | 259 to 261 °C | CC(=O)Nc1ccc(F)c(C(=O)O)c1
87 | 93 to 95 °C | NCc1cccc(N2CCOC2=O)c1
88 | 155 to 157 °C | NC(=O)c1csc(C=O)c1
89 | 148 to 150 °C | Nc1nc2ccccc2n1-c1ccccc1
90 | 139 to 141 °C | CC(C)C(=O)N(C)Cc1ccc(C(=O)O)cc1
91 | 316 to 318 °C | Cn1c(=O)[nH]c(=O)c2cc(C(=O)O)cnc21
92 | 114 to 119 °C | O=C1CN(C(=O)CCl)c2ccccc2N1
93 | 103 to 105 °C | COC(=O)C(=O)CC(=O)c1ccc(Cl)s1
94 | 79 to 81 °C | O=[N+]([O-])c1ccccc1Nc1ccc(F)cc1F
95 | 116 to 118 °C | O=Cc1ccnc(-c2ccccc2)n1
96 | 181 to 183 °C | Nc1ncn(CC(=O)NCc2ccccc2)n1
97 | 163 to 167 °C | CC(=O)N1CCc2ccccc2C1CC(=O)O (stereo not drawn)
98 | 74 to 76 °C | O=S(=O)(Cl)c1cccc2c1OCCO2
99 | 208 to 210 °C | O=C(O)c1ccc(-c2cccc(C(F)(F)F)c2)cc1F

Row | Structure (SMILES) | melting point
100 | CC(Cl)C(=O)NC(=O)NC1CC1 (stereo not drawn) | 88 to 90 °C
101 | CCC(=O)NNC(=O)C(C)Cl (stereo not drawn) | 157 to 159 °C
102 | Cc1cc(NC(=O)C(C)Cl)on1 (stereo not drawn) | 78 to 80 °C
103 | NCCc1ccccc1O | 107 to 109 °C

From a melting point compilation (Tetko et al.)
